Data set [1] deals with Wistar rats. Description: Post prandial blood sugar (BS) levels in STZ-induced diabetic rats. The format is in vivo, rat. Conditions: oligosaccharide 16 mg/kg, metformin 15 mg/kg/day. Here is the method: According to one embodiment herein, the oligosaccharide is administered to rats after purification and structural analysis of the oligosaccharide. The eight week old Wistar rats, weighing from 200-250 gm are purchased from Pasteur institute (Tehran, Iran). The animals are kept on a standard diet with free access to water and food throughout the study. All treatments and maintenance of the animals are carried out in accordance with the principles of laboratory animal care. Further diabetes is induced in the animals except the controls by a single intraperitoneal injection of STZ (60 mg/kg) freshly dissolved in citrate buffer of 5 mmol/L and a pH of 4.5. After an elapse of 48 hrs since the injection of streptozocin (STZ), the diabetes is confirmed by measuring the glucose levels in the blood samples. The blood samples are obtained from the retro-orbital sinus of the animals under diethyl ether-induced light anesthesia with GlucoDr Glucometer (Allmedicus; Germany). […] The first group comprises ten rats and is administered with the oligosaccharide. The second group comprises eight rats and the rats in the second group are injected with the citrate buffer. This group is called a negative control group. The amount of citrate buffer administered to the second group and the amount of oligosaccharide administered to the first group are same or equal. The rats in the oligosaccharide treated groups are given different doses (8-40 mg/kg) of the pure materials dissolved in distilled water twice daily for 21 days starting from the third day since the STZ injection. […] The molecules of glybenclamide or metformin are administered intraperitoneally or by oral gavage and stopped after three weeks. The water intake and urine volume are measured throughout the study. Twenty four hours after the administration of the last dose of oligosaccharide, the blood glucose is monitored in fasting and non-fasting states. The body and pancreas weights are compared. Oral glucose tolerance test, insulin tolerance test, gluconeogenesis inhibition test and alfa glucosidase inhibition tests are conducted. […] The untreated negative controls received no molecule, while the test group received oligosaccharide and the positive control received either metformin or glybenclamide. FIG. 2 illustrates a flow chart indicating the administration and testing of the anti-diabetic effect of oligosaccharide molecule, according to an embodiment herein. The process of administering and testing the antidiabetic effect of oligosaccharide molecule comprises purchasing eight week old male Wistar rats weighing 200-250 gm (201). The rats are purchased from Pasteus Institute (Tehran, Iran). The rats are kept on a standard diet with free access to water and food throughout the study. All the treatments and maintenance of the animals is carried out in accordance with the principles of laboratory animal care. Inducing diabetes by stretozotocin (STZ) 60 mg/kg injection (202). The diabetes is induced in all rats except in the rats in the control group by intraperitoneal injection of STZ freshly dissolved in 5 mmol/L citrate buffer (pH 4.5). The diabetes is confirmed 48 hrs after STZ infection by measuring blood glucose levels (203). The blood from rats is obtained from retro-orbital sinus of the animals under diethyl ether induced light anesthesia with GlucoDr Glucometer (Allmedicus; Germany). […] The rats in positive control, negative control and oligosaccharide treated group are divided into different groups (204). The rats in the negative control group are injected with citrate buffer for three weeks (205). The rats in the positive control group are injected with glybendamide and metformin for three weeks (206). The rats in the oligosaccharide group are injected with different concentration (8-40 mg/kg) of oligosaccharide for three weeks (207). The oligosaccharide is dissolved in distilled water and administered twice daily after STZ injection induced diabetes. […]

For data set [2], the system named is rats. Description: Sub acute toxicity test, hematology, 15 days. Format: in vivo. Here is the method: (§1) According to one embodiment herein, the acute, sub acute and sub chronic toxicological tests are performed based on the standard protocols. For the acute sequential design procedure of LD-50, limit dose test were done and mortality rate is recorded up to 14 days. […] For the animals in the control groups, distilled water is administered by the same protocols. At the end of the time period, the rats are killed and the body specimens are collected for the determination of biochemical, hematological and pathological parameters.

Data set [3] concerns rats. Description: Sub acute toxicity test, biochemistry, 15 days. Format: in vivo. Here is the method: as §1
For data set [4], the system named is rats. To be noted: rat, in vivo. The protocol:
According to one embodiment herein, the acute, sub acute and sub chronic toxicological tests are performed based on the standard protocols. For the acute sequential design procedure of LD-50, limit dose test were done and mortality rate is recorded up to 14 days. Sub acute and sub chronic toxicological tests are performed by an administration of 160 mg/kg (10 folds of therapeutics dose) for 21 and 52 days respectively. For the animals in the control groups, distilled water is administered by the same protocols. At the end of the time period, the rats are killed and the body specimens are collected for the determination of biochemical, hematological and pathological parameters.

[5] abbreviates: 21 days after treatment, glybenclamide 5 mg/kg/day.
[6] abbreviates: 30 days after withdrawal of the treatment, glybenclamide 5 mg/kg/day.
[7] abbreviates: before treatment (baseline), glybenclamide 5 mg/kg/day groups.

For `COC(=O)C1OC(O)C(O)C(O)C1OC1OC(C(=O)OC)C(OC2OC(C(=O)OC)C(OC3OC(C(=O)O)C(O)C(O)C3O)C(O)C2OC(C)=O)C(O)C1O` (centres unmarked) [Oligosaccharide], the “BS levels mg/dl (SD), post prandial” value in data set [1] (setting [5]) is 150(21) mg/dl. Further, the “BS levels mg/dl (SD), post prandial” value in data set [1] (setting [6]) is reported as 144(18) mg/dl. In addition, in data set [1] (setting [7]), the “BS levels mg/dl (SD), post prandial” value is on record as 364(41) mg/dl. For the same compound, in data set [2] (16 mg/kg), the HCT was found to be 42.8 ± 2.9%, the Hb stood at 14.3 ± 0.6 g/dL, the MCH turned out to be 18.1 ± 4.9 pg and the MCHC came to 33.8 ± 4.7 g/dL. In data set [2] (16 mg/kg), the MCV is 54.51 ± 3.2 fL, the PLT is 9.4 ± 1.3 ×105/ml, the RBC is reported as 8.08 ± 1.3 ×106/ml and the WBC is given as 10.5 ± 3.3 ×103/ml. In data set [2] (160 mg/kg), this compound had an HCT of 42.6 ± 1.1%, a Hb of 14.1 ± 0.3 g/dL, an MCH of 18.3 ± 3.9 pg and an MCHC of 33.9 ± 5.1 g/dL. For the same compound, in data set [2] (160 mg/kg), the MCV turned out to be 55.9 ± 2.5 fL, the PLT is recorded as 9.3 ± 2.1 ×105/ml, the RBC was 7.98 ± 1.9 ×106/ml and the WBC is on record as 8.9 ± 2.9 ×103/ml. In data set [3] (16 mg/kg), this compound came in with an ALP of 442.69 ± 90.54 u/l, an ALT of 146.33 ± 18.41 u/l, an AST of 169.41 ± 17.5 u/l and an Alb of 3.22 ± 0.04 g/dL. Besides, in data set [3] (16 mg/kg), the CPK worked out at 1341.5 ± 311.12 u/l, the Chol was found to be 82.15 ± 22.11 mg/dL, the Cr was determined as 0.66 ± 0.02 mg/dL and the Glucose is 113.61 ± 16.4 mg/dL. Further, in data set [3] (16 mg/kg), the LDH was 2019.7 ± 390.4 u/l, the TG amounted to 98.41 ± 15.63 mg/dL, the Urea was 54.71 ± 9.98 mg/dL and the Uric acid was found to be 1.62 ± 0.32 mg/dL. Also, in data set [3] (160 mg/kg), the ALP was 351.37 ± 63.21 u/l, the ALT came out at 142.31 ± 21.32 u/l, the AST is given as 177.51 ± 24.2 u/l and the Alb turned out to be 3.24 ± 0.05 g/dL. In data set [3] (160 mg/kg), this compound came in with a CPK of 1398.3 ± 115.5 u/l, a Chol of 81.11 ± 14.31 mg/dL, a Cr of 0.65 ± 0.04 mg/dL and a Glucose of 109.3 ± 10.4 mg/dL. In data set [3] (160 mg/kg), the LDH was determined as 2110.5 ± 504.7 u/l, the TG was determined as 97.99 ± 17.49 mg/dL, the Urea worked out at 54.87 ± 6.63 mg/dL and the Uric acid is 1.58 ± 0.25 mg/dL. Also, the “abnormality in pathologic studies” value in data set [4] is “no abnormality is observed”.
Consider `COc1ccc(Cl)cc1C(=O)NCCc1ccc(S(=O)(=O)NC(=O)NC2CCCCC2)cc1` [Glybenclamide, glybenclamide], for which the “BS levels mg/dl (SD), post prandial” value in data set [1] (setting [5]) is recorded as 250(63) mg/dl; in data set [1] (setting [6]) it was 363(64) mg/dl; in data set [1] (setting [7]), 360(41) mg/dl.
For `CN(C)C(=N)N=C(N)N` [Metformin, metformin] the same measures were 261(49) mg/dl, 375(59) mg/dl and 375(57)(20) mg/dl.

For the origin of these results see patent US9296831B2, “Herbal extract composition for the treatment of diabetes and a method of extracting the same” (priority 2014, dated 2016).
